The record followed here is US9617256B2 (priority 2007, dated 2017).

≈ marks a conversion by molar mass, not a printed value.

One assay relates to AECO001 (ATCC25922). Nature of the assay: MIC broth microdilution, AECO001. Format: cell-based, E. coli. Conditions: Escherichia coli, ATCC25922, read-out: MIC AECO001. The essentials: (§1)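 Strains were grown overnight at 35° C. on Mueller-Hinton agar, suspended to 0.5 McFarland and diluted to a final 3×10^5–7×10^5 CFU/mL. They were then exposed to 2-fold serial drug dilutions in cation-adjusted Mueller-Hinton broth and incubated 18-24 hours at 35° C.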
Background: Dilution methods test growth across graded concentrations, often in twofold steps.

Assay [1] deals with APAE006 in the presence of 8 micrograms per milliliter of polymyxin B nonapeptide. Format: cell-based, P. aeruginosa. Conditions: in the presence of 8 micrograms per milliliter of polymyxin B nonapeptide. The essentials: (§2)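 Inocula prepared from 0.5 McFarland suspensions (final 3×10^5–7×10^5 CFU/mL) were added to 2-fold drug dilution series in cation-adjusted Mueller-Hinton broth. Plates stood 18-24 hours at 35° C. under ambient air.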

Assay [2] deals with ASAU001 (laboratory strain of S. aureus, ATCC29213). Nature of the assay: MIC broth microdilution, ASAU001. Format: cell-based. Conditions: Staphylococcus aureus, ATCC29213, read-out: MIC ASAU001. Summed up: as §1
The next assay deals with APAE001 (ATCC27853). Description: MIC broth microdilution, APAE001. Format: cell-based, P. aeruginosa. Conditions: Pseudomonas aeruginosa, ATCC27853, read-out: MIC APAE001, APAE001 is ATCC27853. The essentials: as §1
Assay [3] deals with AABA1060 (clinical isolate of Acinetobacter baumannii). Description: MIC broth microdilution, AABA1060. The format is cell-based. To be noted: Acinetobacter baumannii, read-out: MIC AABA1060. The essentials: as §1
Assay [4] has as its system AECO063 (ATCC25922 bearing an acrAB mutation). Description: microbe, parasite or virus in culture. The format is cell-based, E. coli. Conditions: Escherichia coli, ATCC25922, read-out: MIC AECO063. The essentials: as §1
The subject of another assay is AECO001 HSA AGP. Description: MIC broth microdilution, AECO001 HSA AGP. Conditions: Escherichia coli. The format is cell-based, E. coli. Summed up: as §1
For assay [5], the system named is APAE006 (strain of P. aeruginosa in which all efflux pumps are inactivated). Nature of the assay: microbe, parasite or virus in culture. To be noted: Pseudomonas aeruginosa, read-out: MIC APAE006, P. aeruginosa, all efflux pumps inactivated. Format: cell-based. Summed up:
as §2

For `C[C@@H](O)[C@H](NC(=O)c1ccc(C#CC#Cc2ccc(C(F)(F)F)cc2)cc1)C(=O)NO` [Example 82-6], the MIC is under 2 µg/mL in the assay with AECO001 (ATCC25922); 16 to 64 µg/mL (≈ 37.2 to 149 µM) in assay [2]; 2 to 16 µg/mL (≈ 4.65 to 37.2 µM) in the assay on APAE001 (ATCC27853); 16 to 64 µg/mL (≈ 37.2 to 149 µM) in assay [3]; under 2 µg/mL in assay [4]; 2 to 16 µg/mL (≈ 4.65 to 37.2 µM) in the assay on AECO001 HSA AGP. Besides, the MIC in assay [5] fell in the range of 2 to 16 µg/mL (≈ 4.65 to 37.2 µM). Besides, the “MIC APAE006 + PMBN” value in assay [1] is reported as “A (MIC's of 2.0 μg/mL or less = A)”.

For `C[C@@H](N)[C@H](NC(=O)c1ccc(/C=C/C#Cc2ccccc2)cc1)C(=O)NO` [Example 114-1, N-((1S,2R)-2-Amino-1-hydroxycarbamoyl-propyl)-4-((E)-4-phenyl-but-1-en-3-ynyl)-benzamide], the MIC with AECO001 (ATCC25922) is under 2 µg/mL; in assay [2], 2 to 16 µg/mL (≈ 5.5 to 44 µM); in the assay with APAE001 (ATCC27853), under 2 µg/mL; in assay [3], under 2 µg/mL; in assay [4], under 2 µg/mL; in the assay with AECO001 HSA AGP, 2 to 16 µg/mL (≈ 5.5 to 44 µM). Further, the MIC in assay [5] was under 2 µg/mL. Further, the “MIC APAE006 + PMBN” value in assay [1] was “A (MIC's of 2.0 μg/mL or less = A)”.

Turning to `CC(C)(N)C(NC(=O)c1ccc(C#Cc2ccc(CNC3CC3)cc2)cc1)C(=O)NO` (stereo not drawn) [Example 137-6], the MIC in the assay on AECO001 (ATCC25922) is under 2 µg/mL; in assay [2], 16 to 64 µg/mL (≈ 38 to 152 µM); in the assay on APAE001 (ATCC27853) it was under 2 µg/mL; in assay [3] it was 2 to 16 µg/mL (≈ 4.76 to 38 µM); in assay [4], under 2 µg/mL; against AECO001 HSA AGP, 2 to 16 µg/mL (≈ 4.76 to 38 µM). Moreover, the MIC in assay [5] is under 2 µg/mL. Moreover, in assay [1], the “MIC APAE006 + PMBN” value was “A (MIC's of 2.0 μg/mL or less = A)”.

Regarding `O=C(N[C@H](C(=O)NO)C1CCCC1)c1ccc(C#Cc2ccc(CN3CCOCC3)cc2)cc1` [Example 66-6], the MIC in the assay on AECO001 (ATCC25922) is under 2 µg/mL; in assay [2] it was over 64 µg/mL; with APAE001 (ATCC27853), 16 to 64 µg/mL (≈ 34.7 to 139 µM); in assay [3], 16 to 64 µg/mL (≈ 34.7 to 139 µM); in assay [4], under 2 µg/mL; against AECO001 HSA AGP, 2 to 16 µg/mL (≈ 4.33 to 34.7 µM). For the same compound, in assay [5], the MIC was under 2 µg/mL. For the same compound, the “MIC APAE006 + PMBN” value in assay [1] is given as “A (MIC's of 2.0 μg/mL or less = A)”.

As for `C[C@@H](N)[C@H](NC(=O)c1ccc(C#C/C=C/c2ccccc2)cc1)C(=O)NO` [Example 104-4], the MIC was under 2 µg/mL in the assay with AECO001 (ATCC25922); 16 to 64 µg/mL (≈ 44 to 176 µM) in assay [2]; under 2 µg/mL in the assay with APAE001 (ATCC27853); 2 to 16 µg/mL (≈ 5.5 to 44 µM) in assay [3]; under 2 µg/mL in assay [4]; 2 to 16 µg/mL (≈ 5.5 to 44 µM) against AECO001 HSA AGP. Moreover, in assay [5], the MIC is under 2 µg/mL. In assay [1], the “MIC APAE006 + PMBN” value was “A (MIC's of 2.0 μg/mL or less = A)”.

With `C[C@@H](N)[C@H](NC(=O)c1ccc(C#Cc2ccc(CNC3CCC3)cc2)cc1)C(=O)NO` [Example 119-2], the MIC with AECO001 (ATCC25922) is 2 to 16 µg/mL (≈ 4.76 to 38 µM); in assay [2], over 64 µg/mL; in the assay on APAE001 (ATCC27853) it was under 2 µg/mL; in assay [3], over 64 µg/mL; in assay [4], 2 to 16 µg/mL (≈ 4.76 to 38 µM); against AECO001 HSA AGP, 16 to 64 µg/mL (≈ 38 to 152 µM). In addition, in assay [5], the MIC was under 2 µg/mL. For the same compound, the “MIC APAE006 + PMBN” value in assay [1] is “A (MIC's of 2.0 μg/mL or less = A)”.

As to `COC(=O)[C@@H](NC(=O)c1ccc(C#C/C(F)=C/c2ccc(CN3CCOCC3)cc2)cc1)[C@@H](C)O` [Example 109-2, (2S,3R)-methyl 2-(4-((Z)-3-fluoro-4-(4-(morpholinomethyl)phenyl)but-3-en-1-ynyl)benzamido)-3-hydroxybutanoate], the MIC in the assay with AECO001 (ATCC25922) is under 2 µg/mL; in assay [2] it was 16 to 64 µg/mL (≈ 33.3 to 133 µM); with APAE001 (ATCC27853) it was 2 to 16 µg/mL (≈ 4.16 to 33.3 µM); in assay [3], 2 to 16 µg/mL (≈ 4.16 to 33.3 µM); in assay [4], under 2 µg/mL; with AECO001 HSA AGP, 2 to 16 µg/mL (≈ 4.16 to 33.3 µM). The MIC in assay [5] was under 2 µg/mL. Besides, the “MIC APAE006 + PMBN” value in assay [1] was “A (MIC's of 2.0 μg/mL or less = A)”.

As to `C[C@@H](N)[C@H](NC(=O)c1ccc(C#C/C=C/c2ccc(CN3CCOCC3)cc2)cc1)C(=O)NO` [Example 96-4], the MIC in the assay with AECO001 (ATCC25922) was under 2 µg/mL; in assay [2] it was over 64 µg/mL; in the assay on APAE001 (ATCC27853), 2 to 16 µg/mL (≈ 4.32 to 34.6 µM); in assay [3], 2 to 16 µg/mL (≈ 4.32 to 34.6 µM); in assay [4] it was under 2 µg/mL; against AECO001 HSA AGP, 2 to 16 µg/mL (≈ 4.32 to 34.6 µM). For the same compound, the MIC in assay [5] was under 2 µg/mL. In assay [1], the “MIC APAE006 + PMBN” value is listed as “A (MIC's of 2.0 μg/mL or less = A)”.

For the compound `O=C(N[C@H](C(=O)NO)C1CCS(=O)(=O)CC1)c1ccc(C#Cc2ccc(CN3CCOCC3)cc2)cc1` [Example 67-9], the MIC with AECO001 (ATCC25922) is 2 to 16 µg/mL (≈ 3.8 to 30.4 µM); in assay [2], over 64 µg/mL; in the assay on APAE001 (ATCC27853), 16 to 64 µg/mL (≈ 30.4 to 122 µM); in assay [3], over 64 µg/mL; in assay [4] it was under 2 µg/mL; in the assay on AECO001 HSA AGP, 16 to 64 µg/mL (≈ 30.4 to 122 µM). Further, in assay [5], the MIC is under 2 µg/mL. For the same compound, the “MIC APAE006 + PMBN” value in assay [1] was “A (MIC's of 2.0 μg/mL or less = A)”.
